In patent publication US4268630A, “Microbiological production of ketones from C3 -C6 alkanes” (priority 1979, dated 1981):
Like-named read-outs stand apart in the source and are kept apart here.

Legend:
[1] = test system: cell-free secondary alcohol dehydrogenase (SADH) system; assay: Cofactor requirement of cell-free soluble extracts oxidizing 2-butanol; type: biochemical
Description: To prepare the cell-free secondary alcohol dehydrogenase (SADH) system, the washed cells were disrupted with a Wave Energy Ultrasonic Oscillator, Model W201 (Wave Energy System, Inc., Newtown, Pa.) and centrifuged at 20,000× g. for 30 minutes. […] The enzyme activity was measured with a fluorescence spectrophotometer (Perkin Elmer, Model MPF 44A) by following the formation of reduced NAD (EX 340 nm, Em 460 nm). The formation of reduced NAD was also followed with an absorption spectrophotometer at 340 nm. The assay system (3 ml.) contained: potassium phosphate buffer pH 7.0; 150 μmol.; NAD 1 μmol.; a given amount of enzyme preparation; and secondary alcohol 10 μmol. The reaction was started by the addition of substrate. One unit of enzyme activity represents the reduction of one μmole NAD per minute. Protein concentrations were determined by the Lowry method (J. Biol. Chem., 193: 255-275 (1951)).

[2] = test system: secondary alcohol dehydrogenase; assay: Activity of purified yeast-derived secondary alcohol dehydrogenase; type: biochemical, Pichia sp. NRRL Y-11,328; details: purified enzyme
[3] = test system: cell-free extracts of strain ATCC 21439; details: fluorescence spectrophotometry
Description: The reaction mixtures 3 ml (1.0 mg protein) were incubated at 30°
C. for 10 min. (exp. 1) and for 20 min. (exp. 2) in the presence of 1.0
^(a) Determined gas chromatographically.
^(b) Determined fluorescence spectrophotometrically. Endogenous
consumption of NAD was corrected.

With `NC(=O)c1ccc[n+]([C@@H]2O[C@H](COP(=O)([O-])OP(=O)(O)OC[C@H]3O[C@@H](n4cnc5c(N)ncnc54)[C@H](O)[C@@H]3O)[C@@H](O)[C@H]2O)c1` [NAD, Nicotinamide adenine dinucleotide] the “effectiveness as cofactor for oxidation of 2-butanol” value [1] was “required”, the “ability to act as electron acceptor/carrier” value [2] was “required” and the “NAD Consumed” value ([3]; Experiment 1: 10 min) was 270 nmol. The “NAD Consumed” value ([3]; Experiment 2: 20 min) was 540 nmol.
